SMILES strings stand for the structures.

Holding throughout (assay): biochemical
Common to all, as to parameters: Eurofins recombinant human kinase profiling, remaining kinase activity as % of control, 10 uM ATP
Common to all, as to conditions: ATP 10 uM; read-out: %Ctrl@10 μM

In one test the target is T1, MEKK3(h) (Homo sapiens, UniProt Q99759).
T1 construct: gene MAP3K3
The gist of the method:
(§1)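 Activity measured in a commercial panel of 401 recombinant human protein kinases run as a kinase profiling service.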

A further test has as its target CDK14/cyclinY(h) (Homo sapiens, UniProt O94921). The gist of the method:
as §1

A further test deals with VRK2(h) (Homo sapiens, UniProt Q86Y07). The method, boiled down: as §1
For a further test, the target named is T2, PKCα(h) (Homo sapiens, UniProt P17252).
T2 construct: gene PRKCA
The method, boiled down: as §1

In another test the target is T3, Snk(h) (Homo sapiens, UniProt Q9NYY3).
T3 construct: gene PLK2
The method, boiled down: as §1

The next test has as its target FGFR3(h) (Homo sapiens, UniProt P22607). The method, boiled down:
as §1

Another test deals with T4, MAPKAP-K2(h) (Homo sapiens, UniProt P49137).
T4 construct: gene MAPKAPK2
The gist of the method: as §1

The target in a further test is STK16(h) (Homo sapiens, UniProt O75716). The gist of the method: as §1
In a further test the target is T5, ZIPK(h) (Homo sapiens, UniProt O43293).
T5 construct: gene DAPK3
The method, boiled down: as §1

Another test addresses T6, PKCε(h) (Homo sapiens, UniProt Q02156).
T6 construct: gene PRKCE
The gist of the method:
as §1

The next test has as its target T7, cKit(V654A)(h) (Homo sapiens, UniProt P10721, V654A).
T7 construct: gene KIT
The gist of the method:
as §1

A further test deals with STK32C(h) (Homo sapiens, UniProt Q86UX6). The gist of the method:
as §1

A further test addresses T8, PKCμ(h) (Homo sapiens, UniProt Q15139).
T8 construct: gene PRKD1
The gist of the method:
as §1

For the next test, the target named is T9, IKKα(h) (Homo sapiens, UniProt O15111).
T9 construct: gene CHUK
The gist of the method: as §1

The target in the next test is MOK(h) (Homo sapiens, UniProt Q9UQ07). The method, boiled down:
as §1

Another test addresses T10, PDHK2(h) (Homo sapiens, UniProt Q15119).
T10 construct: gene PDK2
The gist of the method:
as §1

The target in a further test is ErbB2(h) (Homo sapiens, UniProt P04626). The method, boiled down: as §1
For the next test, the target named is Fes(h) (Homo sapiens, UniProt P07332). The method, boiled down: as §1
Another test addresses SRPK2(h) (Homo sapiens, UniProt P78362). The gist of the method:
as §1

A further test concerns the target Blk(h) (Homo sapiens, UniProt P51451). The method, boiled down:
as §1

In the next test the target is T11, PAR-1Bα(h) (Homo sapiens, UniProt Q7KZI7).
T11 construct: gene MARK2
The method, boiled down:
as §1

The next test addresses T12, TAO3(h) (Homo sapiens, UniProt Q9H2K8).
T12 construct: gene TAOK3
The method, boiled down: as §1

A further test deals with TLK2(h) (Homo sapiens, UniProt Q86UE8). The method, boiled down: as §1

T12 sequence (Q9H2K8 whole entry): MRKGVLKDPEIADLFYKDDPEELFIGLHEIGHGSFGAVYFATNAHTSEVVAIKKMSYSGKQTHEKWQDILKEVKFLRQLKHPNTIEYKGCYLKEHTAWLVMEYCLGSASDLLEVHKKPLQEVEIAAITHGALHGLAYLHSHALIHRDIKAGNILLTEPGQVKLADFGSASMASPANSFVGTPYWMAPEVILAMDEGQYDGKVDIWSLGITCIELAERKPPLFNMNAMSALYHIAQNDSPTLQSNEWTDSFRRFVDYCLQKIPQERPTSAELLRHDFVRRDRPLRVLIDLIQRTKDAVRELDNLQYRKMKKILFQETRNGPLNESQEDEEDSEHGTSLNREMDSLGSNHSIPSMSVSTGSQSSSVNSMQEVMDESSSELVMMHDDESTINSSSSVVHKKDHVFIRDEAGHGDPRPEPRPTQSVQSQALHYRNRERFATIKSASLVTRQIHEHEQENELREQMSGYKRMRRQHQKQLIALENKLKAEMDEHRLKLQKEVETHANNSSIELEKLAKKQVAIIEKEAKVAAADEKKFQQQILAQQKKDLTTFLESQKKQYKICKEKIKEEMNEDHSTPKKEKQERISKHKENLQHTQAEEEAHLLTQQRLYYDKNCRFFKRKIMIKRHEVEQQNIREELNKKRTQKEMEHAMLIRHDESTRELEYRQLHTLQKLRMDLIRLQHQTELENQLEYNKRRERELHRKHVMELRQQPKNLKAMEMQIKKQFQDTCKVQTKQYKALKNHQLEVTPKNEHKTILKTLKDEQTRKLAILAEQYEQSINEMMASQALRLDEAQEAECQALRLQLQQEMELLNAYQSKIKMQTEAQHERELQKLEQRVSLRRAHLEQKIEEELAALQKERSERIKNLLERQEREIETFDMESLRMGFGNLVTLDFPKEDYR
Chain of SRPK2(h) (P78362 whole entry): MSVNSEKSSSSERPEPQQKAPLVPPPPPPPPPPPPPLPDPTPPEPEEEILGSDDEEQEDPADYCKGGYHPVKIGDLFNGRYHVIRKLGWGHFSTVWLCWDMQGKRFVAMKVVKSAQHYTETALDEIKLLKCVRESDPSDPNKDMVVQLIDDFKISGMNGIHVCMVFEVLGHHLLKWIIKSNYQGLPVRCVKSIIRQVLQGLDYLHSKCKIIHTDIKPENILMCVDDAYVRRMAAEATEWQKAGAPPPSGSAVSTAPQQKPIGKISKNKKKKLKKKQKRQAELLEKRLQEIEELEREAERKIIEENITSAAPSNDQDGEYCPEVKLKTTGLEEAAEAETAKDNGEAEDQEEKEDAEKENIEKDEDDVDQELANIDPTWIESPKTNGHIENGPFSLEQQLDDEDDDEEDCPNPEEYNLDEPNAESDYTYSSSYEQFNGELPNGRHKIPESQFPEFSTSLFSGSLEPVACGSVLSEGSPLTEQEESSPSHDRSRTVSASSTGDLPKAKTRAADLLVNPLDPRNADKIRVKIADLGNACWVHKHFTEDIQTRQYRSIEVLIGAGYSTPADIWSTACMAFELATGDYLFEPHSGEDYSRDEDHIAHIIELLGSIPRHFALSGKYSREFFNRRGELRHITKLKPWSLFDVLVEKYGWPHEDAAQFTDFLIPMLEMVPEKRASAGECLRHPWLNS
T9 sequence (O15111 whole entry): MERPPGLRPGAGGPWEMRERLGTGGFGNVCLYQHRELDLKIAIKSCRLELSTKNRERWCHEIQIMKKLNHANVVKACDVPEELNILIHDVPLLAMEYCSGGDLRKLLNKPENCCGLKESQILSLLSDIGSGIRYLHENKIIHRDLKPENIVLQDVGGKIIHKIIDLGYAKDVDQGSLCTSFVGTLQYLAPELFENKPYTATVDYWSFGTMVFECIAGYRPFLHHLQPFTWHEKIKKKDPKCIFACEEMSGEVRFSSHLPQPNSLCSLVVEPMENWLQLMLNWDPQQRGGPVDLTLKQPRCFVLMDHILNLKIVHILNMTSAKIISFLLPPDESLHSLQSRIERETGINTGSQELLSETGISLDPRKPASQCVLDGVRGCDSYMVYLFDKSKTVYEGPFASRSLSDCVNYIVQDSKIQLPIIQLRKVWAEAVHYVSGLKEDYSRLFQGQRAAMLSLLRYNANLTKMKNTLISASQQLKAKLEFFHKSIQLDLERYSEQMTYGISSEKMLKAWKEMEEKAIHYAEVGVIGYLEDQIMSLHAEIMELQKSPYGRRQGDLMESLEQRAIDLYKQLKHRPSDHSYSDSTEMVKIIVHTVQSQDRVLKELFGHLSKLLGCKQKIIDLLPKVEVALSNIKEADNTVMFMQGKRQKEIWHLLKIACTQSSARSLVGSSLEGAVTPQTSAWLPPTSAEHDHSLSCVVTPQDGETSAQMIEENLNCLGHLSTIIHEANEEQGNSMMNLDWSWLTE
T5 sequence (O43293 whole entry): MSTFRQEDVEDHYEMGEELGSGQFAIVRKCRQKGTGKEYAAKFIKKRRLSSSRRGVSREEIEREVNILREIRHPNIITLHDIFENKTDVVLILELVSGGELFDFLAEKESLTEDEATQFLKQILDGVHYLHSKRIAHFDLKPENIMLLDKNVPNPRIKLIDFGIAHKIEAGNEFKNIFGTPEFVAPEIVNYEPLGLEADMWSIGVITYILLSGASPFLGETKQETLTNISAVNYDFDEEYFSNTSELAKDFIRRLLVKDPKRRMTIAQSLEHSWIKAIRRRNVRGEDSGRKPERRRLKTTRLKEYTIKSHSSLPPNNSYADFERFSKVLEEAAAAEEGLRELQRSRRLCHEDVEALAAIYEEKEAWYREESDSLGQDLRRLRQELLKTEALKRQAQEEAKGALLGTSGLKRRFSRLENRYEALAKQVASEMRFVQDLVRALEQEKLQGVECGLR
Chain of STK32C(h) (Q86UX6 whole entry): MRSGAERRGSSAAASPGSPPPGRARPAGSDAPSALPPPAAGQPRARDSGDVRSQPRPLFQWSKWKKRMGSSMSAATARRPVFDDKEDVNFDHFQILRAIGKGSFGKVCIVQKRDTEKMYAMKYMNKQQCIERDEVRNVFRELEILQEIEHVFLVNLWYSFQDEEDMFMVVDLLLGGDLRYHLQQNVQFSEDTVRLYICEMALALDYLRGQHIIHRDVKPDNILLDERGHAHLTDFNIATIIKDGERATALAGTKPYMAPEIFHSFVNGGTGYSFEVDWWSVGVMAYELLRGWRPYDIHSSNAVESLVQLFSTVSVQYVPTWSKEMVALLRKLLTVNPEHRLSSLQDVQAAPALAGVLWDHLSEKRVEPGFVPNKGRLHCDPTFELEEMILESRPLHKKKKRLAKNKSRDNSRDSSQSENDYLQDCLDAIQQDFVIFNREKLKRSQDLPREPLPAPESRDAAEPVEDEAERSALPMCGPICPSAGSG
Chain of STK16(h) (O75716 whole entry): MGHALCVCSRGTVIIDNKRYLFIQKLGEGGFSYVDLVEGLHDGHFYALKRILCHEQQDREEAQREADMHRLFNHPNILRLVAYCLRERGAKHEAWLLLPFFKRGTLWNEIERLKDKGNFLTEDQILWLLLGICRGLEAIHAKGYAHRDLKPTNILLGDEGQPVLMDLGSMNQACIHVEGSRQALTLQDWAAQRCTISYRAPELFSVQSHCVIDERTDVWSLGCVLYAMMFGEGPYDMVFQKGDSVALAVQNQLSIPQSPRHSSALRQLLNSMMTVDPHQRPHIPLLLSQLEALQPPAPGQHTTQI
Chain of CDK14/cyclinY(h) (O94921 whole entry): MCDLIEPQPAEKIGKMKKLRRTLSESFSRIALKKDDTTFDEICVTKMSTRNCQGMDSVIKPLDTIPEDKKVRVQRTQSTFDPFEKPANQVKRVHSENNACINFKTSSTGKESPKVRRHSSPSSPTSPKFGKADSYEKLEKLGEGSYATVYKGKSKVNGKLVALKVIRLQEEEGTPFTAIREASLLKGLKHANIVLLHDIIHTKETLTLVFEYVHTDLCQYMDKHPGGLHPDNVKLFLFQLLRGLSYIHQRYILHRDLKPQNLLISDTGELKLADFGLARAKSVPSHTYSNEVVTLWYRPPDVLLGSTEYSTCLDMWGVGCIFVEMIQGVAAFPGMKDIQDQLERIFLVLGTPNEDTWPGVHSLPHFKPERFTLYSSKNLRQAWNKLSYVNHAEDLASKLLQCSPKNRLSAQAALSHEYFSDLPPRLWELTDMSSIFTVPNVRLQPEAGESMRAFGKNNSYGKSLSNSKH
Chain of CDK14/cyclinY(h) (Q8ND76 whole entry partner): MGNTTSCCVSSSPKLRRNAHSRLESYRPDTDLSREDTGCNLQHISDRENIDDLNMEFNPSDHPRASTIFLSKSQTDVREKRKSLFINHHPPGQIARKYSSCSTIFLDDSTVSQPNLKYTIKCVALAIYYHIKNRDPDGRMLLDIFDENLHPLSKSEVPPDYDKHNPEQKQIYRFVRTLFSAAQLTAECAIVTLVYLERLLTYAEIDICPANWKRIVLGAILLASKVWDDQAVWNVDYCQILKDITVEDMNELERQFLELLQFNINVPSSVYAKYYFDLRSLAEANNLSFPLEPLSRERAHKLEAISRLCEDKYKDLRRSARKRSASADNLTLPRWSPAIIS
T1 sequence (Q99759 whole entry): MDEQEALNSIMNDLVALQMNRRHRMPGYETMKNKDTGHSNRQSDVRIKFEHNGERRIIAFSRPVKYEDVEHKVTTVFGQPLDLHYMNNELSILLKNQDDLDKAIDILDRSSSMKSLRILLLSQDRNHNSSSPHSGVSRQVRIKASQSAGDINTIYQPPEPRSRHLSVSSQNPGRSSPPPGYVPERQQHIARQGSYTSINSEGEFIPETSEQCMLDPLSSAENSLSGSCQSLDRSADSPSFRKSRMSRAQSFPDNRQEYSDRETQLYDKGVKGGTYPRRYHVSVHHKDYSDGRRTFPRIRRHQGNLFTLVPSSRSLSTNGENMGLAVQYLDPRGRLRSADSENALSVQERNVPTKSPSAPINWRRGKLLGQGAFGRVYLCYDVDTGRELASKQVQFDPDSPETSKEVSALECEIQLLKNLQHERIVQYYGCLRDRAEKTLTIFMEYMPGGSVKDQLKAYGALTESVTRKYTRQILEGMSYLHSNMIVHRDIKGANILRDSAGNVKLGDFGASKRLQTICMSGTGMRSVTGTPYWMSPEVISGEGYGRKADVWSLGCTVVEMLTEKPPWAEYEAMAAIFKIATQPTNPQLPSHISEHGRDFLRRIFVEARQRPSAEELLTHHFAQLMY

With `C1=C(c2nc(-c3cnn(C4CCNCC4)c3)cn3cc(-c4ccccc4)nc23)CCOC1` [YL-939], the remaining activity at 10 µM on MEKK3(h) is 108%; on CDK14/cyclinY(h), 111%; at VRK2(h), 92%; on PKCα(h), 104%; at Snk(h), 112%; on FGFR3(h), 83%. In addition, the remaining activity at 10 µM on MAPKAP-K2(h) was 92%; on STK16(h), 100%; at ZIPK(h), 88%; at PKCε(h), 95%; on cKit(V654A)(h), 92%; on STK32C(h), 82%. The remaining activity at 10 µM on PKCμ(h) turned out to be 77%; at IKKα(h) it was 92%; on MOK(h) it was 88%; on PDHK2(h), 87%; at ErbB2(h), 72%; on Fes(h), 86%. Further, the remaining activity at 10 µM amounted to 87% at SRPK2(h); 100% on Blk(h); 101% at PAR-1Bα(h); 102% on TAO3(h); 88% at TLK2(h).
